“Also recorded” adds a separate entry of the source.
Experiments:
[1] = tested on: HUVEC; assay: Endothelial cell tube formation assay; format: cell-based, human
Excerpt: The Tube Formation Assay represents a simple but powerful model for studying inhibition and induction of angiogenesis. The assay relies on the endothelial cells' ability to form distinct blood-vessel like tubules in an extracellular matrix (BD Matrigel™ Matrix, USA) where they can subsequently be visualized by microscopy. It enables analysis of angiogenic tubules in a 3 dimensional matrix that better resembles the native physiological environment.
Confluent HUVEC (Human umbilical vein endothelial cells) were cultured with above mentioned endothelial medium to desired confluence. For HUVEC 60-80% confluence is recommended.
Endothelial cell suspensions were prepared by trypsinizing the cell monolayers and resuspending the cells in culture medium with 5-10% serum. (0.5−1)×10^6 cells per 180 μL of cell suspension were added (per well of 24 well plate) to the medium (BD Matrigel Matrix) which, had been thawed at 4° C. This suspension was then added to the plates and kept for incubation. The cells were allowed to adhere for 2-3 h and then Compound A (1 μM), Rotenone (1 μM) (Sigma-Aldrich, USA) and Topotecan (3 μM) (Sigma-Aldrich, USA) (20 μL of 10× stocks) were added to the respective wells. DMSO was used as the control. After 24-48 h of incubation the cells were observed under a phase contrast microscope (Zeiss Axio Observer, Germany) for tube formation and angiogenesis.

[2] = tested on: VEGF; assay: VEGF reporter gene based assay (M-9 cells); format: cell-based; settings: Homo sapiens, hypoxia, 20-24 h, read-out: IC50 for VEGF inhibition under hypoxia
Protocol: A cell line M-9 is MDA-MB-231 which is stably co-transfected with the VEGF-Luc construct (VEGF promoter in pGL2-basic) and a plasmid containing the Geneticin (G418) resistance gene which forms VEGF promoter reporter gene. The expression of the reporter gene in the clone cells, as measured by luciferase activity, is stable.
The effect of Compound A on VEGF inhibition was evaluated using the VEGF reporter gene based assay.
Lysis Assay Buffer (1×) • Tris-Phosphate (pH 7.8)-125 mM, DTT-10 mM, EDTA-10 mM, Glycerol-50% and Triton X-100-5%.
Luciferase Assay Reagent (LAR) • Luciferase Assay Buffer-8 mL, 530 μM ATP-530 μL, 270 μM CoA-1 mL and 170 μM Luciferin-1 mL.
Luciferase Assay Buffer (LAB) (1×) • Tricin (pH 7.8)-20 mM, Magnesia Alba-1.07 mM, MgSO4-2.67 mM, EDTA-0.1 mM and DTT-33.3 mM. ATP Stock made in LAB=5.85 mg/mL CoA Stock made in LAB=2.1 mg/mL Luciferin Stock made in LAB=1.5 mg/mL
1. M-9 cells were sub-cultured and maintained in RPMI-1640 Medium with supplement of 10% FBS, and 4 μL/ml G418 (Stock 100 mg/mL) in a humidified incubator at 37° C. and 5% CO2. 2. Cells were seeded at density of 3×10^4 cells/well in 180 μL volume in tissue culture grade 96 well white plates as well as transparent plates and allowed to adhere for 16-20 h in humidified CO2 incubator (5% CO2) at 37° C. A total of two sets of plates were made, as the incubation conditions are different. 3. Compound A, Sutent® and BSI-201 were diluted in medium serially so that final desired concentrations are achieved in the respective wells. (not more than 0.5% concentration of DMSO in the wells). 4. INCUBATION CONDITIONS: One set of plates are incubated under ambient atmospheric condition with 5% CO2, referred hereafter as NORMOXIC/OXIC PLATE. […] To all the wells, 100 μL Luciferase Assay Reagent (LAR) are added, plates are immediately read for Luminescence on TOPCOUNT™ (Packard, USA). The percentage inhibitions and Inhibitory Concentration (IC50) or Effective Concentration (EC50) are calculated in comparison with Control (untreated) values. […]

[3] = tested on: U251 pGL3; assay: Control luciferase reporter cell line (U251 pGL3); format: cell-based; settings: normoxia
Excerpt: 1) U251 HRE: The genetically engineered cells U251 HRE which stably express a recombinant vector in which the Luciferase reporter gene is under control of three copies of a canonical HRE. 2) U251 pGL3: A control cell line contains the firefly Luciferase reporter gene under control of the constitutively active SV40 promoter and enhancer that helps to exclude compounds that inhibit Luciferase expression in a nonspecific and/or HIF-1-independent fashion. These cells expressed high basal levels of Luciferase in normoxic conditions and slightly lower levels in hypoxic conditions.
U251 HRE cells were inoculated into 96 well white flat-bottomed plates at 10000-15000 cells/well in a volume of 180 μL and incubated for 24 h at 37° C., 5% CO2, and ambient O2. Compound A was tested at various concentrations viz. […] After 20 h incubation, the plates were removed and incubated at room temperature, 5% CO2, and ambient O2 for 1.5 h. 40 μL of Bright Glo Luciferase reagent (Promega™, USA) was added and after 3 min, luminescence was measured using a Polar Star Plate Reader (USA) in luminescence mode. Appropriate control cells (U251 pGL3) were treated identically, except that they were treated at 37° C., 5% CO2 and ambient O2. Compound toxicity was assayed using the MTS assay.

[4] = molecular target: T1, PARP (Homo sapiens, UniProt P09874); assay: PARP enzyme activity measured by PAR polymers (Western blot), MDA-MB-468; format: cell-based; settings: 1.5 μM and 5 μM, 24 h, hydrochloride
T1 construct: endogenous in cells; host or cells: MDA-MB-231; MDA-MB-468
Protocol: To study PARP enzyme activity, PAR polymer formation was measured. MDA-MB-231 and MDA-MB-468 cells were seeded in RPMI 1460 medium with 10% FCS in […] tissue culture flask and incubated for 24 h. These cells were treated at 1.5 μM and 5 μM of Compound A for 24 h. The cells were harvested (trypsinised) and lysed using lysis buffer. Western blotting (Molecular Cancer Therapeutics, 2007, 6, 918-925) was done with specific antibody to PAR.
Correlation of PARP activity and cell cycle proteins cyclin D1, total Rb and pRb 780 were studied in two TNBC cell lines viz. MDA-MB-468 and MDA-MB-231. MDA-MB-231 and MDA-MB-468 cells were seeded in RPMI 1460 medium with 10% FCS in […] tissue culture flask and incubated for 24 h. These cells were treated at 1.5 μM and 5 μM Compound A for 24 h. The cells were harvested (trypsinised) and lysed using lysis buffer. Western blotting was carried out (Molecular Cancer […], 2007, 6, 918-925) using specific antibody to PAR, PARP, cyclin D1, CDK4 and pRb Ser 780.

T1 sequence (P09874 2-1014 limits assumed): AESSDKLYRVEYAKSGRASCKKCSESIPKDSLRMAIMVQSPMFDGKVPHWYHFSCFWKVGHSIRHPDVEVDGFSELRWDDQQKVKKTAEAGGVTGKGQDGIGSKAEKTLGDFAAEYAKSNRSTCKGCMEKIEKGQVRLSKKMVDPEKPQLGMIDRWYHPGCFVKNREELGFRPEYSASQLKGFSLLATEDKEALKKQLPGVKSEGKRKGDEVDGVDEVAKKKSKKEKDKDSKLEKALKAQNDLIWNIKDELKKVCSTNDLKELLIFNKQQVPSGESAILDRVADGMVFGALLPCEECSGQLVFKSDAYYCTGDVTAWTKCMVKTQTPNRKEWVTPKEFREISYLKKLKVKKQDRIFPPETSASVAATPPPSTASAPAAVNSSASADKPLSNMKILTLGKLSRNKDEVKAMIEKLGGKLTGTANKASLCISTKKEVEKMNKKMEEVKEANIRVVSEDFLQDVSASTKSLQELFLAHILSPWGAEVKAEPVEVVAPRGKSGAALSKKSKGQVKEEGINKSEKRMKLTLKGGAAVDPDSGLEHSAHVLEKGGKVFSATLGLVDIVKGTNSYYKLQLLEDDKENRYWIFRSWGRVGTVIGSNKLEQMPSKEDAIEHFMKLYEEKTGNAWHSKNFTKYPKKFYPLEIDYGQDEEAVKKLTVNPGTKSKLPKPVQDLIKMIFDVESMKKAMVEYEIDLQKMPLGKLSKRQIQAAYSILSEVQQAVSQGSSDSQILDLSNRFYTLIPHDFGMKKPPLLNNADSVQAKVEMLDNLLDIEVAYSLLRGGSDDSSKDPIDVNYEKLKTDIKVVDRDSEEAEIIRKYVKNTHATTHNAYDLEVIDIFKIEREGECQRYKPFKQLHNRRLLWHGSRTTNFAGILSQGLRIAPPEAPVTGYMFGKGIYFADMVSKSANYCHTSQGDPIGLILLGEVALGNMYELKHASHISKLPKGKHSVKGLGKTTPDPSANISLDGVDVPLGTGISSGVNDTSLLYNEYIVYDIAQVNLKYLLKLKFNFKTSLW

- IC50 [2]: 310 nM
SMILES: CN1CC[C@@H](c2c(O)cc(O)c3c(=O)cc(-c4ccccc4Cl)oc23)[C@@H]1CO.Cl [Compound A, (+)-trans-2-(2-Chloro-phenyl)-5,7-dihydroxy-8-(2-hydroxymethyl-1-methyl-pyrrolidin-3-yl)-chromen-4-one hydrochloride]
- tube formation inhibition compared with standards ([1]; 1 μM vs Rotenone 1 μM and Topotecan 3 μM): comparable to Rotenone (standard VEGF inhibitor) and better than Topotecan
- endothelial tube formation ([1]; HUVEC in Matrigel, 1 μM, 24-48 h): effectively inhibited endothelial tube formation
- luciferase expression in control cell line [3]: did not inhibit the luciferase expression
- PARP enzyme activity (PAR polymer formation) [4]: the formation of PAR polymers is not inhibited; also recorded: no change in the PAR polymer formation

Source: US20130237582A1, “PHARMACEUTICAL COMBINATION OF PACLITAXEL AND A CDK INHIBITOR” (Piramal Enterprises Limited, priority 2010, published 2013)
